These are literature values, as cited in US9687529B2, “Method of controlling coagulation” (Duke University, priority 2011, dated 2017).

pKd: −log10 of the molar value.

For data set [1] the following is noted: aptamer/antidote pair; neonatal porcine cardiopulmonary bypass; cited from earlier work.
For data set [2], the target named is T1, FIXa (Homo sapiens, UniProt P00740).
T1 construct: host or cells: circulating blood of trial subjects (endogenous protein)
The settings on record: clinical studies; cited from earlier work.

Data set [3] deals with human prothrombin (Homo sapiens, UniProt P00734). The settings on record: read-out: apparent Kd; cited from earlier work.

T1 sequence (P00740 227-461 limits assumed): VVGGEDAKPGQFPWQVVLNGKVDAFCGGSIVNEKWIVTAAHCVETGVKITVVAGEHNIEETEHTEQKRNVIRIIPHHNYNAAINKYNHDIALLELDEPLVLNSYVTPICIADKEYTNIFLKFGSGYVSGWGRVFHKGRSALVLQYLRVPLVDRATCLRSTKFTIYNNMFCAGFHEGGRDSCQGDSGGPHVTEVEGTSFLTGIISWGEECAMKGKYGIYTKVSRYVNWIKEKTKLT
T1 sequence (P00740 47-191 partner limits assumed): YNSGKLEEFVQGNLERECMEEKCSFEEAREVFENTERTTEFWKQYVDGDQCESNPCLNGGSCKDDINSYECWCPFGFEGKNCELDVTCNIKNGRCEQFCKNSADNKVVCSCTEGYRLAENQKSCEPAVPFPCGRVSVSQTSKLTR

For the substance “9.3T: FIXa aptamer, 2'-fluoropyrimidine modified RNA, SEQ ID NO: 1 (AUGGGGACUAUACCGCGUAAUGCUGCCUCCCCAU; 2'-fluoro at CU, RNA at AG, backbone not given here) [Aptamer 9.3T]”, the “anticoagulation in CPB model (in words)” value in data set [1] is on record as “sufficiently anticoagulated blood”. Moreover, the “FIXa activity inhibited in vivo” value in data set [2] is reported as “greater than 99%”.

In the case of “R9D-14T: prothrombin/thrombin aptamer, 58-base truncation of RNA9D-14, SEQ ID NO: 3 (GGCGGTCGATCACACAGTTCAAACGTAATAAGCCAATGTACGAGGCAGACGACTCGCC; 2'-fluoro at CT, RNA at AG, backbone and T or U not given here) [Aptamer R9D-14T]”, in data set [3], the negative logarithm of the Kd (pKd) was 8.00.

By pKd is commonly meant the Kd on a negative log10 scale, so that one unit is a factor of ten.
